Tested on: 379773-124-R-J2-PDC spheroid viability
Assay: Anticancer human tumor 379773-124-R-J2-PDC patient-derived endometrial carcinoma cell line growth inhibition [POLQ]
Details: spheroids with HUVEC and MSC; for IC50: curve of first compound; for viability, T/C: stronger effect = lower value
How it was run: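 PDC + HUVEC + MSC complex spheroids; POLQ inhibitors ± partner drugs; top conc. at/near clinical Cmax, else 10 microM (SN-38 1 microM), half-log dilutions; 37 degrees C, 5% CO2.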

[1] = second compound 0.0316 µM, first compound 0.0316 µM
[2] = second compound 0.0316 µM, first compound 0.1 µM
[3] = second compound 0.0316 µM, first compound 0.316 µM
[4] = second compound 0.0316 µM, first compound 1 µM
[5] = second compound 0.0316 µM, first compound 3.16 µM
[6] = second compound 0.0316 µM, first compound 10 µM
[7] = second compound 0.1 µM, first compound 0.0316 µM
[8] = second compound 0.1 µM, first compound 0.1 µM
[9] = second compound 0.1 µM, first compound 0.316 µM
[10] = second compound 0.1 µM, first compound 1 µM
[11] = second compound 0.1 µM, first compound 3.16 µM
[12] = second compound 0.1 µM, first compound 10 µM
[13] = second compound 0.316 µM, first compound 0.0316 µM
[14] = second compound 0.316 µM, first compound 0.1 µM
[15] = second compound 0.316 µM, first compound 0.316 µM
[16] = second compound 0.316 µM, first compound 1 µM
[17] = second compound 0.316 µM, first compound 3.16 µM
[18] = second compound 0.316 µM, first compound 10 µM
[19] = second compound 1 µM, first compound 0.0316 µM
[20] = second compound 1 µM, first compound 0.1 µM
[21] = second compound 1 µM, first compound 0.316 µM
[22] = second compound 1 µM, first compound 1 µM
[23] = second compound 1 µM, first compound 3.16 µM
[24] = second compound 1 µM, first compound 10 µM
[25] = second compound 3.16 µM, first compound 0.0316 µM
[26] = second compound 3.16 µM, first compound 0.1 µM
[27] = second compound 3.16 µM, first compound 0.316 µM
[28] = second compound 3.16 µM, first compound 1 µM
[29] = second compound 3.16 µM, first compound 3.16 µM
[30] = second compound 3.16 µM, first compound 10 µM
[31] = second compound 10 µM, first compound 0.0316 µM
[32] = second compound 10 µM, first compound 0.1 µM
[33] = second compound 10 µM, first compound 0.316 µM
[34] = second compound 10 µM, first compound 1 µM
[35] = second compound 10 µM, first compound 3.16 µM
[36] = second compound 10 µM, first compound 10 µM
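Note: spheroids exposed to drugs for seven days before readout.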
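Throughout, for viability, T/C: percent viability relative to DMSO vehicle control taken as 100%.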

SMILES: COc1cc2cc(C(=O)CCC(=O)O)sc2cc1OC + COC1C(OC(N)=O)C(O)C(Oc2ccc3c(O)c(NC(=O)c4ccc(O)c(CC=C(C)C)c4)c(=O)oc3c2C)OC1(C)C
- IC50 (second compound 0.0316 µM): > 10 µM
- IC50 (second compound 0.1 µM): > 10 µM
- IC50 (second compound 0.316 µM): > 10 µM
- IC50 (second compound 1 µM): > 10 µM
- IC50 (second compound 3.16 µM): > 10 µM
- IC50 (second compound 10 µM): > 10 µM
- viability, T/C [1]: 85.9%
- viability, T/C [2]: 75.8%
- viability, T/C [3]: 92.1%
- viability, T/C [4]: 82.5%
- viability, T/C [5]: 78%
- viability, T/C [6]: 91.4%
- viability, T/C [7]: 88.2%
- viability, T/C [8]: 82%
- viability, T/C [9]: 90.2%
- viability, T/C [10]: 83.3%
- viability, T/C [11]: 85.5%
- viability, T/C [12]: 96.6%
- viability, T/C [13]: 96%
- viability, T/C [14]: 83.6%
- viability, T/C [15]: 76.5%
- viability, T/C [16]: 82.1%
- viability, T/C [17]: 81%
- viability, T/C [18]: 84.6%
- viability, T/C [19]: 82.7%
- viability, T/C [20]: 84.1%
- viability, T/C [21]: 90.9%
- viability, T/C [22]: 89%
- viability, T/C [23]: 90%
- viability, T/C [24]: 78.2%
- viability, T/C [25]: 99.9%
- viability, T/C [26]: 82.5%
- viability, T/C [27]: 78.1%
- viability, T/C [28]: 78.7%
- viability, T/C [29]: 90.2%
- viability, T/C [30]: 85.3%
- viability, T/C [31]: 92.8%
- viability, T/C [32]: 86.1%
- viability, T/C [33]: 86%
- viability, T/C [34]: 69.2%
- viability, T/C [35]: 86.1%
- viability, T/C [36]: 95.4%

SMILES: O=C(Nc1ccc(O)c(NS(=O)(=O)c2ccc(F)cc2)c1)c1ccc(-c2ccccc2)cc1 + COC1C(OC(N)=O)C(O)C(Oc2ccc3c(O)c(NC(=O)c4ccc(O)c(CC=C(C)C)c4)c(=O)oc3c2C)OC1(C)C
- IC50 (second compound 0.0316 µM): > 10 µM
- IC50 (second compound 0.1 µM): > 10 µM
- IC50 (second compound 0.316 µM): > 10 µM
- IC50 (second compound 1 µM): > 10 µM
- IC50 (second compound 3.16 µM): > 10 µM
- IC50 (second compound 10 µM): > 10 µM
- viability, T/C [1]: 88.1%
- viability, T/C [2]: 79.6%
- viability, T/C [3]: 87.4%
- viability, T/C [4]: 75%
- viability, T/C [5]: 82.5%
- viability, T/C [6]: 76.2%
- viability, T/C [7]: 83.5%
- viability, T/C [8]: 77.2%
- viability, T/C [9]: 99.9%
- viability, T/C [10]: 79.5%
- viability, T/C [11]: 75.8%
- viability, T/C [12]: 74%
- viability, T/C [13]: 82%
- viability, T/C [14]: 92.8%
- viability, T/C [15]: 95.6%
- viability, T/C [16]: 73.4%
- viability, T/C [17]: 86.4%
- viability, T/C [18]: 67.1%
- viability, T/C [19]: 95.1%
- viability, T/C [20]: 73.5%
- viability, T/C [21]: 79.8%
- viability, T/C [22]: 79%
- viability, T/C [23]: 83.9%
- viability, T/C [24]: 70.1%
- viability, T/C [25]: 79.2%
- viability, T/C [26]: 88.2%
- viability, T/C [27]: 77.9%
- viability, T/C [28]: 80.7%
- viability, T/C [29]: 90.3%
- viability, T/C [30]: 83.3%
- viability, T/C [31]: 84.4%
- viability, T/C [32]: 78.9%
- viability, T/C [33]: 80.7%
- viability, T/C [34]: 80.4%
- viability, T/C [35]: 75.3%
- viability, T/C [36]: 74.6%
